The text below walks through data of PMC6167002 (Journal of Medicinal Chemistry, 2018).

Each structure is given as a SMILES string.

The first experiment deals with T1, T. brucei.
T1 construct: s427
As to the kind of experiment: microbe, parasite or virus in culture. On the set-up: species or system T. b. brucei s427 bloodstream form; bloodstream T. b. brucei viability, resazurin fluorescence. The settings on record: Trypanosoma brucei, 73 h. How it is done: T.brucei cell viability assays were carried out as described previously.[6] In brief, bloodstream T. b. brucei s427 was cultured at 37 °C in modified HMI9 medium (56 μM 1-thioglycerol was substituted for 200 μM 2-mercaptoethanol) and quantified using a hemocytometer. Cell culture plates were stamped with 1 μL of an appropriate concentration of test compound in DMSO followed by the addition of 200 μL of trypanosome culture (10^4 cells ml^–1) to each well except for one column that received media only. Culture plates of T. brucei cells were incubated at 37 °C in an atmosphere of 5% CO2 for 69 h before the addition of 20 μL of resazurin (final concentration, 50 μM). After a further 4 h incubation, fluorescence was measured (excitation 528 nm; emission 590 nm) using a BioTek flx800 plate reader.
`CC(C)Cc1ccc2ncccc2c1NS(=O)(=O)c1ccc(CCCOC[C@@H]2CCCCN2)cc1` [S3, (S)-N-(6-isobutylquinolin-5-yl)-4-(3-(piperidin-2-ylmethoxy)propyl)benzenesulfonamide] returned a 50% effective concentration (EC50) of 850 nM.

Take `CC(C)Cc1ccc2ncccc2c1NS(=O)(=O)c1ccc(CCCN2CCN(C)CC2)cc1` [compound 38, N-(6-isobutylquinolin-5-yl)-4-(3-(4-methylpiperazin-1-yl)propyl)benzenesulfonamide]: the EC50 amounted to 84 nM.

Take `CC(C)Cc1ccc2ncccc2c1NS(=O)(=O)c1ccc(CCCOC[C@@H]2CNCCO2)cc1` [compound 44, (S)-N-(6-isobutylquinolin-5-yl)-4-(3-(morpholin-2-ylmethoxy)propyl)benzenesulfonamide]: a half-maximal response (EC50) required 39 nM.

For the molecule `CC(C)Cc1ccc2ncccc2c1NS(=O)(=O)c1ccc(CCCO[C@@H]2C[C@H]3CC[C@@H](C2)N3C)cc1` [compound 41, 41], the EC50 worked out at 91 nM.

As to `CC(C)Cc1ccc2ncccc2c1NS(=O)(=O)c1ccc(CCCCN2CCNCC2)cc1` [compound 39, N-(6-isobutylquinolin-5-yl)-4-(4-(piperazin-1-yl)butyl)benzenesulfonamide], a half-maximal response (EC50) required 180 nM. Compared with the last molecule, the EC50 is about 2-fold higher.

`CC(C)Cc1ccc2ncccc2c1NS(=O)(=O)c1ccc(CCCCN2CCCN(C)CC2)cc1` [compound 37, N-(6-isobutylquinolin-5-yl)-4-(4-(4-methyl-1,4-diazepan-1-yl)butyl)benzenesulfonamide] displayed a concentration giving a half-maximal response (EC50) of 59 nM. Compared with the last molecule, the EC50 is about 3.1-fold lower.

Turning to `CC(C)Cc1ccc2ncccc2c1NS(=O)(=O)c1ccc(CCCO[C@H]2C[C@H]3CC[C@@H](C2)N3C)cc1` [compound 42, 42], the 50% effective concentration (EC50) was found to be 9 nM.

Turning to `CC(C)Cc1ccc2ncccc2c1NS(=O)(=O)c1ccc(CCCO[C@@H]2CCCN(C)C2)cc1` [compound 43, (R)-N-(6-isobutylquinolin-5-yl)-4-(3-((1-methylpiperidin-3-yl)oxy)propyl)benzenesulfonamide], the midpoint of the response, the EC50, lay at 39 nM.

`CC(C)Cc1ccc2ncccc2c1NS(=O)(=O)c1ccc(CCCN2CCN3CCC[C@H]3C2)cc1` [S2, (S)-4-(3-(hexahydropyrrolo[1,2-a]pyrazin-2(1H)-yl)propyl)-N-(6-isobutylquinolin-5-yl)benzenesulfonamide] had a half-maximal effective concentration (EC50) of 150 nM.

For `CC(C)Cc1ccc2ncccc2c1NS(=O)(=O)c1ccc(CCCOC[C@H]2COCCN2C)cc1` [S6, (S)-N-(6-isobutylquinolin-5-yl)-4-(3-((4-methylmorpholin-3-yl)methoxy)propyl)benzenesulfonamide], the EC50 was 250 nM.

Molecule `CC(C)Cc1ccc2ncccc2c1NS(=O)(=O)c1ccc(CCCCN2C[C@@H](C)N[C@@H](C)C2)cc1` [compound 40, 4-(4-((3S,5R)-3,5-dimethylpiperazin-1-yl)butyl)-N-(6-isobutylquinolin-5-yl)benzenesulfonamide] returned an EC50 of 350 nM.

The molecule `CC(C)Cc1ccc2ncccc2c1NS(=O)(=O)c1ccc(CCCCC2CCN(C)CC2)cc1` [compound 32, N-(6-Isobutylquinolin-5-yl)-4-(4-(1-methylpiperidin-4-yl)butyl)benzenesulfonamide] displayed an EC50 of 19 nM. This EC50 is about 18-fold lower than that of the molecule before.

`CC(C)Cc1ccc2ncccc2c1NS(=O)(=O)c1ccc(CCCN2CCCN(C)CC2)cc1` [compound 36, N-(6-isobutylquinolin-5-yl)-4-(3-(4-methyl-1,4-diazepan-1-yl)propyl)benzenesulfonamide] displayed an EC50 of 18 nM.

Turning to `CC(C)Cc1ccc2ncccc2c1NS(=O)(=O)c1ccc(CCCN2CCN3CCC[C@@H]3C2)cc1` [compound 34, (R)-4-(3-(hexahydropyrrolo[1,2-a]pyrazin-2(1H)-yl)propyl)-N-(6-isobutylquinolin-5-yl)benzenesulfonamide], the response was half-maximal at 40 nM (EC50).

On to `CC(C)Cc1ccc2ncccc2c1NS(=O)(=O)c1ccc(CCCCC2CCNCC2)cc1` [compound 33, N-(6-isobutylquinolin-5-yl)-4-(4-(piperidin-4-yl)butyl)benzenesulfonamide], for which the EC50 is 21 nM.

Take `CC(C)Cc1ccc2ncccc2c1NS(=O)(=O)c1ccc(CCCOC[C@@H]2CCCN(C)C2)cc1` [S4, (R)-N-(6-isobutylquinolin-5-yl)-4-(3-((1-methylpiperidin-3-yl)methoxy)propyl)benzenesulfonamide]: the EC50 was 10 nM.

In turn, `CC(C)Cc1ccc2ncccc2c1NS(=O)(=O)c1ccc(CCCCN2CCN3CCC[C@@H]3C2)cc1` [compound 35, (R)-4-(4-(hexahydropyrrolo[1,2-a]pyrazin-2(1H)-yl)butyl)-N-(6-isobutylquinolin-5-yl)benzenesulfonamide] gave an EC50 of 250 nM. This EC50 is about 25-fold higher than that of the molecule before.

In the case of `CC(C)Cc1ccc2ncccc2c1NS(=O)(=O)c1ccc(CCCC2CCNCC2)cc1` [S1, N-(6-isobutylquinolin-5-yl)-4-(3-(piperidin-4-yl)propyl)benzenesulfonamide], the EC50 stood at 25 nM.

Turning to `CC(C)Cc1ccc2ncccc2c1NS(=O)(=O)c1ccc(CCCOC[C@H]2COCCN2)cc1` [S5, (S)-N-(6-isobutylquinolin-5-yl)-4-(3-(morpholin-3-ylmethoxy)propyl)benzenesulfonamide], the EC50 stood at 710 nM.

Consider `CC(C)Cc1ccc2ncccc2c1NS(=O)(=O)c1ccc(CCCC2CCN(C)CC2)cc1` [compound 31, N-(6-isobutylquinolin-5-yl)-4-(3-(1-methylpiperidin-4-yl)propyl)benzenesulfonamide], for which the 50% effective concentration (EC50) is 9 nM.

In the next experiment the target is T2, TbNMT (Trypanosoma brucei N-myristoyltransferase) (Trypanosoma brucei, UniProt Q388H8).
T2 construct: gene Tb10.61.2550
T2 sequence (Q388H8 entry or part of it): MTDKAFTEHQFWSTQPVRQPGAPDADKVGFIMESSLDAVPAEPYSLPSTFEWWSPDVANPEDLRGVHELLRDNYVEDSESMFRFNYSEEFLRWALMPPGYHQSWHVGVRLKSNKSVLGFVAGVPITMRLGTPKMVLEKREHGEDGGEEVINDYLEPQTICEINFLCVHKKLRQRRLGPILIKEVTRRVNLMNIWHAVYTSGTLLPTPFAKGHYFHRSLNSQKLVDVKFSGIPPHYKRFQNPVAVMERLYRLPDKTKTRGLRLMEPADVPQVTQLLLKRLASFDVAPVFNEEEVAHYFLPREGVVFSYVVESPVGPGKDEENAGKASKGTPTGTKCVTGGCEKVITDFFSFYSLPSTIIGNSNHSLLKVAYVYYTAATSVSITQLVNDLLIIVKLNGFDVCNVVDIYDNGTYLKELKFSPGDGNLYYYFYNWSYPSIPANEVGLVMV
As to the kind of experiment: scintillation proximity assay with [3H]myristoyl-CoA and biotinylated CAP5.[…] peptide. The format is biochemical.
Conditions: not given
In general terms: SPA uses beads or plates that emit light when radiolabelled molecules are held near them.
For the molecule `CC(C)Cc1ccc2nn(C)cc2c1NS(=O)(=O)c1ccc(CCCCC2CCN(C)CC2)cc1` [compound 54, N-(5-Isobutyl-2-methyl-2H-indazol-4-yl)-4-(4-(1-methylpiperidin-4-yl)butyl)benzenesulfonamide], the concentration for half-maximal inhibition (IC50) was below 5 nM.

Molecule `CC(C)Cc1ccc2ncccc2c1NS(=O)(=O)c1ccc(CCCCC2CCN(C)CC2)cc1` [compound 32, N-(6-Isobutylquinolin-5-yl)-4-(4-(1-methylpiperidin-4-yl)butyl)benzenesulfonamide] showed an IC50 below 5 nM.

Take `CC(C)Cc1ccc2nn(C)cc2c1NS(=O)(=O)c1ccc(CCCO[C@@H]2C[C@H]3CC[C@@H](C2)N3C)cc1` [compound 60]: the IC50 worked out at 5 nM.

For orientation: EC50 means the midpoint of the concentration-response curve. Read a low EC50 as an effect from little substance. The IC50 is the point on the concentration scale where inhibition reaches its midpoint. The low end stands for greater potency in that assay, the high end for weaker potency in that assay.
